# “And” between values parts separate entries of the source, which are not always exact repeats. Equal entries are not always repeated.
# What was measured:
# [1] = Pharmacokinetics of CNS-102 in rats, IV and oral; assay type: in vivo; settings: rat
# Description: Rats were administered a single dose of CNS-102 either intravenously (12 mg/kg) or orally (24 mg/kg), and blood samples were taken to measure the average plasma concentrations of CNS-102 over time.
# The formulation for this study includes the following: […]
# AUC(0-last) (min*ng/ml): area under the concentration-time curve from zero up to the last measurable time-point.
# lz (1/min): the first order rate constant associated with the terminal (log-linear) portion of the curve, estimated by linear regression of time vs. log concentration.
# Terminal Half-Life (t½)=ln(2)/lz: calculated using Lambda_z method to find best fit. If necessary, the concentration-time points were manually selected for use in the calculation. Bolded-italicized concentrations indicate points used for calculation.
# AUC(0-inf) (min*ng/ml): Area under the concentration-time curve from zero up to infinity, based on the last observed concentration. Requires lz.
# HSP70 [2] = test: HSP70 expression in Neuro2A cells by western blot; assay type: cell-based, mouse; settings: Neuro2A cells, western blot
# Description: Differentiation was induced and cells incubated with geranylgeranyl transferase I inhibitor, GGTI-298. Cells were harvested and lysates were prepared and analyzed by western blot for HSP70 and HSP90. Western signals in the absence of the compounds were normalized as 1.00.
# rats, kainic acid model = test: Concentration dependence of neuroprotection in the kainic acid model; assay type: in vivo, rat; settings: one dose at 0, 1, 3, 6, 12 or 24 mg/kg; fraction of cells damaged
# Description: The fraction of cells damaged in the kainic acid model was determined on 130 rats, each receiving one dose of CNS-102 at either 0, 1, 3, 6, 12 or 24 mg/kg. PBS was used for dosing at 0 mg/kg. The linear model of the log10 percent damage versus concentration is graphically shown FIG. 5.
# [3] = test system: Sprague Dawley rats, KA injected into the hippocampus; test: Time course of neuroprotection in the kainic acid model; assay type: in vivo, rat; settings: for Difference of mean fraction damaged to pooled PBS / Mean fraction of hippocampus cells having KA-induced damage: 12 mg/kg oral; for Mean fraction of hippocampus cells having KA-induced damage: pooled PBS 0.187
# Description: CNS-102 was administered orally to Sprague Dawley rats at 12 mg/kg. After dosing, KA was stereotactically injected into the hippocampus at 24, 48, 72, 96 and 168 hours to induce neuron damage. After 24 h, hippocampus tissue was collected, stained, and imaged. The scans were analyzed by Image J to calculate the fraction of cells having KA-induced damage. Average fraction damaged in the hippocampus from ten animals for each treatment (PBS vs. 12 mg/kg CNS-102) by time (24, 48, 72, 96 and 168 hours) combination was estimated with PROC MIXED in SAS. Comparisons of the CNS-102 treatment groups to the pooled PBS treatment at the different times can be made, giving the results tabulated below.
# [4] = test system: Sprague-Dawley rats injected with Kainic acid; test: Kainic acid induced neurodegeneration and seizure in rats (Example 21); assay type: in vivo, rat; settings: oral
# Source text: Seizure behaviors were observed and scored (Ref. R. J. Racine, Modification of seizure activity by electrical stimulation: II. Motor seizure, Electroencephalogr. Clin. Neurophysiol. 32 (1972) 281-294. Modifications were made for the methods). Brain tissues of rats were sectioned on histology slides, and neurons in hippocampus tissues were stained by Nissl. Neurons damaged by Kainic acid and behavior scores were quantified.
# [5] = test system: Sprague Dawley rats, KA injected into the hippocampus; test: Neuroprotection by CNS-102 in the presence of GGA cis-isomer in the kainic acid model; assay type: in vivo; settings: 24 mg/Kg rat oral; KA at 72 hours
# Description: After dosing, KA was stereotactically injected into the hippocampus at 72 hours to induce neuron damage. After 24 h, hippocampus tissue was collected, stained, and imaged. The scans were analyzed by Image J to calculate the fraction of cells having KA-induced damage.
# [6] = Blood chemistry and hematology in Sod1 mutant and wild type mice; settings: daily oral 12 mg/kg
# Description: A total of 84 male mice (64 transgenic Sod1 mutant mice; 20 wild type mice) were included in the study. Dosing was administered daily beginning at postnatal day 38 (P38) via a single bolus oral gavage injection.
# Blood and serum samples from days P70 and P100 were collected on three animals from each of the six treatment groups. Hematology measures were white blood cell count, red blood cell count, hemoglobin, hematocrit, mean corpuscular volume, mean corpuscular hemoglobin, mean corpuscular hemoglobin concentration, and platelets. Chemistry values were alanine aminotransferase, aspartate aminotransferase, albumin, total protein, gamma globulin, blood urea nitrogen, cholesterol, and glucose.
# [7] = test system: Murine neuro2A neuroblastoma cells; test: Neurite outgrowth of neuro2A cells inhibited with GGTI-298 (Example 30); assay type: cell-based, mouse; settings: for Relative %: relative to uninhibited count
# Description: Differentiation was induced and cells incubated with geranylgeranyl transferase I inhibitor, GGTI-298. After 24 h digital images were taken and neurite outgrowth was quantified. The comparisons of the neuroprotective effect of these three compounds are shown below.
# The estimated mean log10 counts, from five replicate wells for each treatment group were calculated by PROC GLM in SAS assuming a pooled estimate of variation.
# The estimated mean log10 counts from five replicate wells for each treatment group were calculated by PROC GLM in SAS assuming a pooled estimate of variation.
# Differences in mean log(counts) between treatments for each concentration were calculated using PROC GLM in SAS. The p-value given is for the comparison of the estimated difference to zero, the expected difference value for no treatment effect. The anti-log of the differences represent the estimated ratio of counts (relative effect on inhibition) and are tabulated below along with the lower and upper 95% confidence intervals.
# HSP70 [8] = test: HSP70 induction in rat hippocampus with or without stereotactic kainic acid injection; assay type: in vivo
# Description: Stereotactic injections of Kainic acid into rat hippocampus tissues led to increased damages in neurons. […] Under this condition, neurons and HSP70 expression was stained by immunohistochemistry techniques. HSP70 expression was induced in a very specific area only that KA was injected. The induced area was not stained by HSP70 antibody when KA was not injected, but CNS-102 was dosed.
# HSP70 induction by dosing CNS-102 in the absence of the KA injection was limited in western blot experiments using hippocampus lysates. 120% or 130% of HSP70 expression could be seen by comparing those of vehicle dosing control experiments.
compound,measurement,setting,value
CC(=O)CC/C=C(\C)CC/C=C(\C)CC/C=C(\C)CCC=C(C)C [CNS-102],"AUC(0-inf), Average",[1]; 12 mg/kg IV,208728 ng·min/mL
same,"AUC(0-last), Average",[1]; 12 mg/kg IV,115146 ng·min/mL
same,"C0, Average",[1]; 12 mg/kg IV,9144.0 ng/mL
same,"Vss, Average",[1]; 12 mg/kg IV,9.796 L/kg
same,"Vz, Average",[1]; 12 mg/kg IV,12.039 L/kg
same,"t1/2, Average",[1]; 12 mg/kg IV,2.45 h
same,"AUC(0-inf), Average",[1]; 24 mg/kg oral,204878 ng·min/mL
same,"AUC(0-last), Average",[1]; 24 mg/kg oral,189114 ng·min/mL
same,"Cmax, Average",[1]; 24 mg/kg oral,752.9 ng/mL
same,"Tmax, Average",[1]; 24 mg/kg oral,5.67 h
same,"t1/2, Average",[1]; 24 mg/kg oral,1.72 h
same,"F(0-inf), Average",[1]; 24 mg/kg oral vs 12 mg/kg IV,49.1%
same,"F(0-last), Average",[1]; 24 mg/kg oral vs 12 mg/kg IV,82.1%
same,induction of HSP70 expression (in words),HSP70 [2],induce expression of HSP70 at various concentrations
same,minimal effective dose,"rats, kainic acid model",12 mg/kg
same,Difference of mean fraction damaged to pooled PBS,[3]; KA at 24 hours,0.005
same,Mean fraction of hippocampus cells having KA-induced damage,[3]; KA at 24 hours,0.193
same,Difference of mean fraction damaged to pooled PBS,[3]; KA at 48 hours,−0.064
same,Mean fraction of hippocampus cells having KA-induced damage,[3]; KA at 48 hours,0.123
same,Difference of mean fraction damaged to pooled PBS,[3]; KA at 72 hours,−0.092
same,Mean fraction of hippocampus cells having KA-induced damage,[3]; KA at 72 hours,0.096
same,Difference of mean fraction damaged to pooled PBS,[3]; KA at 96 hours,−0.056
same,Mean fraction of hippocampus cells having KA-induced damage,[3]; KA at 96 hours,0.131
same,Difference of mean fraction damaged to pooled PBS,[3]; KA at 168 hours,−0.026
same,Mean fraction of hippocampus cells having KA-induced damage,[3]; KA at 168 hours,0.162
same,timepoint of maximal protection effect,[3]; single oral dose of 12 mg/kg,72 h
same,Mean of Hippocampus CA3 neurons damaged (Arbitrary units),[4]; 3 mg/Kg rat,10.25 Arbitrary units
same,Mean of Hippocampus CA3 neurons damaged (Arbitrary units),[4]; 12 mg/Kg rat,10.16 Arbitrary units
same,Mean of Hippocampus CA3 neurons damaged (Arbitrary units),[4]; 25 mg/Kg rat,1.97 Arbitrary units
same,Mean of Hippocampus CA3 neurons damaged (Arbitrary units),[5],19.8182 Arbitrary units
same,cholesterol levels (in words),[6],cholesterol levels were reduced
same,Median Counts of cells with neurite outgrowth,"[7]; 10 nM, CNS-101 vs CNS-102 experiment (no inhibition 95.5, PBS 21.5)",33.8
same,Relative %,"[7]; 10 nM, CNS-101 vs CNS-102 experiment",35.4%
same,Median Counts of cells with neurite outgrowth,"[7]; 100 nM, CNS-101 vs CNS-102 experiment (no inhibition 95.5, PBS 21.5)",43.4
same,Relative %,"[7]; 100 nM, CNS-101 vs CNS-102 experiment",45.4%
same,Median Counts of cells with neurite outgrowth,"[7]; 100 nM, CNS-102 vs CNS-103 experiment (no inhibition 60.3, PBS 18.5)",33.5
same,Relative %,"[7]; 100 nM, CNS-102 vs CNS-103 experiment",55.6%
same,Median Counts of cells with neurite outgrowth,"[7]; 1000 nM, CNS-101 vs CNS-102 experiment (no inhibition 95.5, PBS 21.5)",51.0
same,Relative %,"[7]; 1000 nM, CNS-101 vs CNS-102 experiment",53.4%
same,Median Counts of cells with neurite outgrowth,"[7]; 1000 nM, CNS-102 vs CNS-103 experiment (no inhibition 60.3, PBS 18.5)",23.8
same,Relative %,"[7]; 1000 nM, CNS-102 vs CNS-103 experiment",39.5%
same,Median Counts of cells with neurite outgrowth,"[7]; 10000 nM, CNS-101 vs CNS-102 experiment (no inhibition 95.5, PBS 21.5)",38.2
same,Relative %,"[7]; 10000 nM, CNS-101 vs CNS-102 experiment",40%
same,maximum protection,"[7]; CNS-101 vs CNS-102 experiment, FIG. 4A",~40%
same,maximum protection,"[7]; CNS-102 vs CNS-103 experiment, FIG. 4B",~36%
same,HSP70 induction (in words),"HSP70 [8]; KA stereotactically injected in hippocampus, localized in the injection site",a strong induction of HSP70 was seen very clearly
same,HSP70 expression compared with vehicle dosing control,"HSP70 [8]; western blot of hippocampus lysates, absence of the KA injection",120% and 130%

# From patent US9045403B2 (Coyote Pharmaceuticals, Inc., priority 2012, dated 2015)
